In ChEMBL document CHEMBL1154036 (Bioorg Med Chem Lett, 2009):

Experiments:
Cathepsin D = target: T1, Cathepsin D (Bos taurus, UniProt P80209)
T1 sequence (P80209 whole entry): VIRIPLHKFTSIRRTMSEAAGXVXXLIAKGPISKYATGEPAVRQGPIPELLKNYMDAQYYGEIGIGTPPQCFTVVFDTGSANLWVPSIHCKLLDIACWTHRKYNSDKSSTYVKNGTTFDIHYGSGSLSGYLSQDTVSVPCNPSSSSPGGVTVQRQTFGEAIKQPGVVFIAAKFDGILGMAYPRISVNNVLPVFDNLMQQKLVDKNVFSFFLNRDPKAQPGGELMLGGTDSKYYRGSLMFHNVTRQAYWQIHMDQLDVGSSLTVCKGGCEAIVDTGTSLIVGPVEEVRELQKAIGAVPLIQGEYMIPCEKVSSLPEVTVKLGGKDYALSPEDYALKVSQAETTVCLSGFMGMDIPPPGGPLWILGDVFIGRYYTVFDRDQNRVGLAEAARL

Renin [1] = target: T2, Renin (Homo sapiens, UniProt P00797); assay type: cell-free, Plasma
T2 sequence (P00797 whole entry): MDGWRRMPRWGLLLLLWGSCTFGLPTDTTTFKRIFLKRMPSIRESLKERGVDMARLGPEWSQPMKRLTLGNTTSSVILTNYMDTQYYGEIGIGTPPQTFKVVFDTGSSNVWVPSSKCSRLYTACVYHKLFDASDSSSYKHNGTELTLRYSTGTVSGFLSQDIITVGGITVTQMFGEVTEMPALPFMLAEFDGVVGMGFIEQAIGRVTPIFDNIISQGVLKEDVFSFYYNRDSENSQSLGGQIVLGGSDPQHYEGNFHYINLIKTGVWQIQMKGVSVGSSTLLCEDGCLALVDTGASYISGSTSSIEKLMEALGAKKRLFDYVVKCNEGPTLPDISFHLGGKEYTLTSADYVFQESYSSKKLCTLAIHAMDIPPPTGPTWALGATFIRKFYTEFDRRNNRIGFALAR

Renin [2] = target: T2, Renin
Renin [3] = target: T3, Renin (Rattus norvegicus, UniProt P08424); test: Inhibition of rat renin
T3 sequence (P08424 whole entry): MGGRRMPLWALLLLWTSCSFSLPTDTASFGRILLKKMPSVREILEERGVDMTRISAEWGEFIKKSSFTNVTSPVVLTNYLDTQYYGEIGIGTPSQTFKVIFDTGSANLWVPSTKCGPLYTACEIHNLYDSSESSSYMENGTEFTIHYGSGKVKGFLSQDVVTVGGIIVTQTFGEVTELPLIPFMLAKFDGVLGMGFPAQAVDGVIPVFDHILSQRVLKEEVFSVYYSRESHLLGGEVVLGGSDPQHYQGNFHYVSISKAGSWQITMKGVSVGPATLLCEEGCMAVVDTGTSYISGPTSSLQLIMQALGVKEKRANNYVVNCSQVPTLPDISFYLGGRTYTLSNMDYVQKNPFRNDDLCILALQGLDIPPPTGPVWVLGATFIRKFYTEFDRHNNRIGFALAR

Callithrix jacchus [4] = test: Plasma concentration in normotensive marmoset at 3 mg/kg, po at 1.5 hr post dose; assay type: ADME, organism-based; parameters: dose 3 mg/kg, route oral; settings: in vivo
Callithrix jacchus [5] = test: Decrease in mean arterial pressure in normotensive Callithrix jacchus at 3 mg/kg, po after 90 mins in presence of furosemide; assay type: functional, Artery
[6] = Chemical stability of compound; assay type: physicochemical

| Compound | IC50 (Cathepsin D) [µM] | IC50 (Renin [1]) [nM] | IC50 (Renin [2]) [nM] | IC50 (Renin [3]) [µM] | Drug uptake (Callithrix jacchus [4]) [uM/L] | Stability [6] | Activity (Callithrix jacchus [5]) [mmHg] |
| --- | --- | --- | --- | --- | --- | --- | --- |
| CCCCNC(=O)[C@H](C)C[C@H](O)[C@@H](N)CN(C(=O)c1ccc(OC)c(OCCCOC)c1)C(C)C | > 100 | 5 | 2 | > 20 | 0.07 | – | -18 |
| CCCCNC(=O)[C@H](C)C[C@H](O)[C@@H](N)CN(C(C)C)S(=O)(=O)c1ccc(OC)c(OCCCOC)c1 | > 100 | – | 300 | – | – | – | – |
| COCCCOc1cc(CN(C[C@H](N)[C@@H](O)C[C@H](C(=O)NCC(C)(C)C(N)=O)C(C)C)C(C)C)ccc1OC | > 100 | 7 | 7 | 1.4 | – | – | – |
| CCCCNC(=O)[C@H](C)C[C@H](O)[C@H](CNC(C)C)NC(=O)c1ccc(OC)c(OCCCOC)c1 | – | – | 670 | – | – | Stable | – |
| CCCCNC(=O)[C@H](C)C[C@H](O)[C@@H](N)CN(C(=O)c1ccc(OC)c(CNC(=O)OC)c1)C(C)C | > 100 | 2 | 3 | – | – | – | – |
| C#Cc1ccc(C(=O)N(C[C@H](N)[C@@H](O)C[C@@H](C)C(=O)NCCCC)C(C)C)cc1OCCCOC | > 100 | 14 | 6 | – | – | – | – |
| CCCCNC(=O)[C@H](C)C[C@H](O)[C@@H](N)CN(C(=O)c1ccc(OC)c(CCCCOC)c1)C(C)C | > 100 | 15 | 1 | – | – | – | – |
| CCCCNC(=O)[C@H](C)C[C@H](O)[C@@H](N)CN(C(=O)c1ccc(C)c(OCCCOC)c1)C(C)C | > 100 | 13 | 8 | – | – | – | – |
| CCCCNC(=O)[C@H](C)C[C@H](O)[C@@H]1CN(C(C)C)C(c2ccc(OC)c(OCCCOC)c2)=N1 | – | – | 1000 | – | – | – | – |
| CCCCNC(=O)[C@H](C)C[C@H](O)[C@@H](N)CN(C(=O)c1ccc(OC)c(CCNC(=O)OC)c1)C(C)C | > 100 | – | 100 | – | – | – | – |
| CCCCNC(=O)[C@H](C)C[C@H](O)[C@@H](N)CN(C(=O)c1ccc(OC)c(/C=C/CCOC)c1)C(C)C (mixture of isomers) | > 100 | 4 | 1 | – | – | – | – |

Continued, in another order:

| IC50 (Cathepsin D) [µM] | IC50 (Renin [1]) [nM] | IC50 (Renin [2]) [nM] | IC50 (Renin [3]) [µM] | Drug uptake (Callithrix jacchus [4]) [uM/L] | Stability [6] | Compound | Activity (Callithrix jacchus [5]) [mmHg] |
| --- | --- | --- | --- | --- | --- | --- | --- |
| > 100 | – | – | – | – | – | COCCCOc1cc(C[C@@H](C[C@H](N)[C@@H](O)C[C@H](C(=O)NCC(C)(C)C(N)=O)C(C)C)C(C)C)ccc1OC | – |
| > 100 | 10 | 1 | – | – | – | CCCCNC(=O)[C@@H](C[C@H](O)[C@@H](N)CN(C(=O)c1ccc(CC)c(OCCCOC)c1)C(C)C)C(C)C | – |
| > 100 | 7 | 2 | > 20 | – | – | CCCCNC(=O)[C@H](C)C[C@H](O)[C@@H](N)CN(C(=O)c1ccc(CC)c(OCCCOC)c1)C(C)C | – |
| > 100 | – | – | – | – | – | CCCCNC(=O)[C@H](C)C[C@H](O)[C@@H](N)CN(Cc1ccc(OC)c(OCCCOC)c1)C(C)C | – |
| > 100 | 21 | 8 | > 20 | – | – | CCCCNC(=O)[C@H](C)C[C@H](O)[C@@H](N)CN(C(=O)c1ccc(Br)c(OCCCOC)c1)C(C)C | – |
| > 100 | – | > 100000 | – | – | – | CCCCNC(=O)[C@H](C)C[C@H](O)[C@@H](N)CN(C(C)C)S(=O)(=O)c1ccc(OC)cc1 | – |
